According to patent US12558397B2, “Composition for prevention, amelioration, or treatment of urination-related diseases comprising cephalotocin” (KOREA RESEARCH INSTITUTE OF CHEMICAL TECHNOLOGY, priority 2020, dated 2026):

Key:
Assay type in all cases: cell-based
[1] = target: T1, human vasopressin V2 receptor (Homo sapiens, UniProt P30518); assay: Vasopressin receptor V2R activity/inhibitory effect, intracellular cAMP by HTRF; conditions: CHO cells overexpressing human V2 receptor, FIGS. 3 and 4
T1 construct: expressed in transfected cells; host or cells: CHO (Chinese hamster ovary) cells
Procedure: Recombinant human vasopressin V2 receptor-overexpressing Chinese hamster ovary cells (cell line name: CHO) were cultured and treated with cephalotocin at different concentrations at room temperature for 30 minutes, and intracellular cAMP concentration accumulated for 30 minutes by cephalotocin-vasopressin V2 receptor binding was measured by the HTRF fluorescence imaging method. […]. To confirm the receptor inhibitory effect, the response to increasing the intracellular cAMP concentration that vasopressin 0.03 nM may cause for 30 minutes was taken as 100% standard, and the relative magnitude of the response induced when treated with vasopressin 0.03 nM and cephalotocin simultaneously was measured.
(§1) . The results confirming the regulatory effect on the receptors OXTR, V1AR, V1BR and V2R by Octopus vulgaris octopressin are shown in FIGS. 3 and 4, respectively.

human oxytocin receptor = target: T2, human oxytocin receptor (Homo sapiens, UniProt P30559); assay: Oxytocin receptor OXTR activity/inhibitory effect, intracellular calcium by calcium dye fluorescence imaging; conditions: ECSV304 cells overexpressing human oxytocin receptor, FIGS. 3 and 4
T2 construct: expressed in transfected cells; host or cells: recombinant human epithelial cells, cell line ECSV304 as printed
T2 sequence (P30559 1-389): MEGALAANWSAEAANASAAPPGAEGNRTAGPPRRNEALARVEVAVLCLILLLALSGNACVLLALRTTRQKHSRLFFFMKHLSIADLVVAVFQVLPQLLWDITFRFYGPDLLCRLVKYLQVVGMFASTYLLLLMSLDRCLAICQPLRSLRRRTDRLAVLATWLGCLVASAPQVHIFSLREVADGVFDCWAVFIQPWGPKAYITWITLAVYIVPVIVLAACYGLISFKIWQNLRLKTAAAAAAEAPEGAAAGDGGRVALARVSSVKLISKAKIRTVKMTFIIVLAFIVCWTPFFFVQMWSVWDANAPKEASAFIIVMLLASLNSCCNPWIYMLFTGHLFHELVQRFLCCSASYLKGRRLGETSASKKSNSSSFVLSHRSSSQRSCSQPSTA
Procedure: Recombinant human epithelial cells overexpressing human oxytocin receptor (Name of cell line: ECSV304) were cultured and treated with cephalotocin at different concentrations at room temperature. The change in intracellular calcium concentration induced by cephalotocin-oxytocin receptor binding was measured by calcium dye fluorescence imaging.
To confirm the receptor activation effect, the response to increasing the intracellular calcium concentration that oxytocin 1 μM may cause was taken as 100%, and the relative magnitude of the response induced when treated with cephalotocin alone without oxytocin was measured
(§2) To confirm the receptor inhibitory effect, the response to increasing the intracellular calcium concentration that oxytocin 30 nM may cause was taken as 100% standard, and the relative magnitude of the response induced when treated with oxytocin 30 nM and cephalotocin simultaneously was measured.
as §1

[2] = target: T3, human vasopressin V1B receptor (Homo sapiens, UniProt P47901); assay: Vasopressin receptor V1BR activity/inhibitory effect, intracellular calcium by calcium dye fluorescence imaging; conditions: RBL cells overexpressing human V1B receptor, FIGS. 3 and 4
T3 construct: expressed in transfected cells; host or cells: RBL (basophilic leukemia) cells
T3 sequence (P47901 1-424): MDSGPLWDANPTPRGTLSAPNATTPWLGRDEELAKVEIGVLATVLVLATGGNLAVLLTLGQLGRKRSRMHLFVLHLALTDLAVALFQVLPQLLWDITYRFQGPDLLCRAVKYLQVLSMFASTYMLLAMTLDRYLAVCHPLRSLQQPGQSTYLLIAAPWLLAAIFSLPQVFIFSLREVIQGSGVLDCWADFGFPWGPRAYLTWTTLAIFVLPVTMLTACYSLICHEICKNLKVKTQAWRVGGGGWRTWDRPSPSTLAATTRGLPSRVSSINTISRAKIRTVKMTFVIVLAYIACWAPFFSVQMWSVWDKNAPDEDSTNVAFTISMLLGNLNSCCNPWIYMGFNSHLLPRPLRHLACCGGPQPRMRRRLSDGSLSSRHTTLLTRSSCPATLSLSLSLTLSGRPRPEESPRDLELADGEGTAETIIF
Procedure: (§3) Recombinant human vasopressin V1B receptor-overexpressing murine basophilic leukemia (cell line name: RBL) was cultured and treated with cephalotocin at different concentrations at room temperature, and the change in intracellular calcium concentration induced by cephalotocin-vasopressin V1B receptor binding was measured by the calcium dye fluorescence imaging method.
The results confirming the regulatory effect on the receptors OXTR, V1AR, V1BR and V2R by Octopus vulgaris octopressin are shown in FIGS. 3 and 4, respectively.

[3] = target: T4, human vasopressin V1A receptor (Homo sapiens, UniProt P37288); assay: Vasopressin receptor V1AR activity/inhibitory effect, intracellular calcium by calcium dye fluorescence imaging; conditions: CHO cells overexpressing human V1A receptor, FIGS. 3 and 4
T4 construct: expressed in transfected cells; host or cells: CHO (Chinese hamster ovary) cells
Procedure: as §3, with “V1A” for “V1B”, “Chinese hamster ovary cells” for “murine basophilic leukemia”, “CHO) were” for “RBL) was”
as §2, with “vasopressin 10” for “oxytocin 30”
as §1

T4 sequence (P37288 whole entry): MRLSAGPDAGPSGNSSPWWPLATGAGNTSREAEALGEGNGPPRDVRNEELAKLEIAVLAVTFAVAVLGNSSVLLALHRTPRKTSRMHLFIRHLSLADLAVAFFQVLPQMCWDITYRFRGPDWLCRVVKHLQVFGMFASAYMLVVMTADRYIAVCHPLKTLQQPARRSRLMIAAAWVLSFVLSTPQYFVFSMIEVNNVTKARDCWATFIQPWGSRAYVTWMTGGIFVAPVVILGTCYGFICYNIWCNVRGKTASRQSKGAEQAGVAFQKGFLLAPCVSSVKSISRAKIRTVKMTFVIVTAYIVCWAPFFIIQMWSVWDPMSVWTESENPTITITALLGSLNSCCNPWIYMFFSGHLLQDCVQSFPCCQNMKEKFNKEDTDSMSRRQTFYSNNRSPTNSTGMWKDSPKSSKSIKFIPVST

- Regulation (activation/inhibition) of V2R [1]: does not regulate
- Regulation (activation/inhibition) of OXTR (human oxytocin receptor): does not regulate
- Regulation (activation/inhibition) of V1BR [2]: does not regulate
- Regulation (activation/inhibition) of V1AR [3]: does not regulate
Substance: octopressin
